Paper PMC8165439, “Chymase Dependent Pathway of Angiotensin II Generation and Rapeseed Derived Peptides for Antihypertensive Treatment of Spontaneously Hypertensive Rats” (Frontiers in Pharmacology, 2021)
Entries after “also recorded” stand apart in the source; their conditions may differ.

Columns and labels:
[1] = system: spontaneously hypertensive rats (SHR); assay: Plasma and urine parameters during chronic treatment; format: in vivo, rat; conditions: mean ± SEM
Description: (§1) Systolic and diastolic blood pressure (SBP and DBP, respectively) and heart rate (HR) were measured in conscious unrestrained rats by telemetry technique, once a week for 24 h. 24 hour observations in metabolic cages (Tecniplast S. p.A. Buguggiate, Italy) were performed weekly. The diuresis, weight of feces, food and water intake were measured; urine and blood samples were collected on day 0, 7th and 14th, and were centrifuged at 1200 g (blood for 15 min and urine for 5 min), then the samples were stored at –80°C until analysis.
On day 0 all animals received saline (0.9% NaCl) and then, for 14 consecutive days, the substance tested. Chymostatin (CH, 2 mg/kg/day) was dissolved in DMSO and then diluted with PBS (final concentration of DMSO was 0.15%). Peptides RIY (7.5 mg/kg/day) and VWIS (12.5 mg/kg/day) were dissolved in saline (0.9% NaCl, S). The substances were administered through the femoral vein during 10 min in the volume of 0.5 ml to young SHR (infusion rate: 3 ml/h) and 1 ml to adult rats (infusion rate: 6 ml/h). Control rats received solvents (either DMSO or saline) in the same volume.
Urine volume was determined by gravimetric method. Sodium and potassium concentration in urine and plasma were measured by flame photometry (PFP7/C, Jenway Ltd, Stone, United Kingdom). Urine and plasma osmolality were measured by freezing point depression (Osmomat® 030 M, Gonotec, Berlin, Germany). These parameters were used to determine the excretion rates of total solutes (UosmV), sodium (UNaV) and potassium (UKV). Commercially available ELISA kits were used to measure nitric oxide metabolites (NOx, SunRed, Shanghai) and albumin (Albumin, ICL, Portland) concentration in urine. Excretion rate of NOx (UNOxV) and albumin (UAE) were calculated.

[2] = system: spontaneously hypertensive rats (SHR); assay: Chronic iv treatment, systolic blood pressure by telemetry; format: in vivo, rat
Text: Implantation of the telemetry transmitters for BP measurement: Seven days before the start of the chronic experiment all rats were implanted with telemetry probes for blood pressure monitoring (Data Science International, St. Paul, MN, United States). The transmitters (TA11PA-C10 dedicated for young animals or TA11PA-C40 for adult rats, Data Science International, St. Paul, MN, United States), were implanted under aseptic conditions, under sodium pentobarbital anesthesia (Sodium Pentobarbital, dose: 50 mg/kg ip, Biowet, Pulawy, Poland). The transmitter’s cannula was implanted into the aorta and transmitter’s body was placed inside the peritoneal cavity and fixed to the abdominal muscle wall. Metacam (0.4 mg/kg BW, Boehringer, Ingelheim, Germany) and Baytril (10 mg/kg BW, Bayer, Leverkusen, Germany) were used as post-operative analgesia and to prevent infection, respectively.
Implantation of cannulas for intravenous administration of selected substances: Four days before the start of the chronic experiment, the femoral vein was cannulated for chronic administration of the substances (Micro-Renathane MRE033, BIOSEB-In Vivo Research Instruments, United States/Canada), and the femoral artery was cannulated for blood sampling (Micro-Renathane Tubing MRE-025 and MRE033, BIOSEB-In Vivo Research Instruments, United States/Canada, respectively in young and adult rats). Both cannulas were filled with 4% Citra-Lock solution (Dirinco B.V, Ketelmeer 1, 5347 JX Oss, Netherlands) to prevent blood clotting and inflammation. After the surgery the post-operative treatment was applied as that for telemetric probe implantation.
as §1, with “24 hour observations in metabolic cages (Tecniplast S. p.A. Buguggiate, Italy) were performed weekly.” left out, “analysis. […]” for “analysis.”

[3] = adult SHR (SHR-16), day 0 (baseline)
[4] = adult SHR (SHR-16), day 7 of daily iv treatment
[5] = adult SHR (SHR-16), day 14 of daily iv treatment
[6] = young SHR (SHR-6), day 0 (baseline)
[7] = young SHR (SHR-6), day 7 of daily iv treatment
[8] = young SHR (SHR-6), day 14 of daily iv treatment

SMILES: CC(C)C[C@H](NC(=O)[C@@H](NC(=O)N[C@@H](Cc1ccccc1)C(=O)O)[C@@H]1CCN=C(N)N1)C(=O)N[C@H](C=O)Cc1ccccc1 [CH, chymostatin]
- Plasma osmolality ([1]; adult SHR (SHR-16), day 0 (baseline), CH n=5-8, RIY n=5-6, VWIS n=5-6): 307±2 mOsm/l
- Plasma K+ concentration [1, 3]: 4.39 ± 0.27 mmol/L
- Plasma Na+ concentration [1, 3]: 134.6 ± 2.6 mmol/L
- Potassium excretion [1, 3]: 1.28 ± 0.19 µmol/min
- Sodium excretion [1, 3]: 1.01 ± 0.13 µmol/min
- Total solute excretion [1, 3]: 7.05±0.90 µOsm/min
- Plasma osmolality ([1]; adult SHR (SHR-16), day 7 of daily iv CH 2, RIY 7.5, VWIS 12.5 mg/kg/day): 299±2 mOsm/l
- Plasma K+ concentration [1, 4]: 4.21 ± 0.10 mmol/L
- Plasma Na+ concentration [1, 4]: 130.5 ± 2.3 mmol/L
- Potassium excretion [1, 4]: 1.24 ± 0.25 µmol/min
- Sodium excretion [1, 4]: 0.77 ± 0.23 µmol/min
- Total solute excretion [1, 4]: 7.11±1.34 µOsm/min
- Plasma osmolality ([1]; adult SHR (SHR-16), day 14 of daily iv CH 2, RIY 7.5, VWIS 12.5 mg/kg/day): 294±5 mOsm/l
- Plasma K+ concentration [1, 5]: 3.95 ± 0.20 mmol/L
- Plasma Na+ concentration [1, 5]: 126.1 ± 1.0 mmol/L
- Potassium excretion [1, 5]: 1.71 ± 0.15 µmol/min
- Sodium excretion [1, 5]: 1.11 ± 0.33 µmol/min
- Total solute excretion [1, 5]: 7.04±1.15 µOsm/min
- Plasma osmolality ([1]; young SHR (SHR-6), day 0 (baseline), CH n=8-10, RIY n=5, VWIS n=5-6): 303±3 mOsm/l
- Plasma K+ concentration [1, 6]: 4.34 ± 0.16 mmol/L
- Plasma Na+ concentration [1, 6]: 125.8 ± 2.1 mmol/L
- Potassium excretion [1, 6]: 0.48 ± 0.08 µmol/min
- Sodium excretion [1, 6]: 0.51 ± 0.09 µmol/min
- Total solute excretion [1, 6]: 2.94±0.68 µOsm/min
- Plasma osmolality ([1]; young SHR (SHR-6), day 7 of daily iv CH 2, RIY 7.5, VWIS 12.5 mg/kg/day): 297±3 mOsm/l
- Plasma K+ concentration [1, 7]: 4.61 ± 0.12 mmol/L
- Plasma Na+ concentration [1, 7]: 126.0 ± 2.3 mmol/L
- Potassium excretion [1, 7]: 0.95 ± 0.12 µmol/min
- Sodium excretion [1, 7]: 0.90 ± 0.12 µmol/min
- Total solute excretion [1, 7]: 6.05±1.16 µOsm/min
- Plasma osmolality ([1]; young SHR (SHR-6), day 14 of daily iv CH 2, RIY 7.5, VWIS 12.5 mg/kg/day): 295±6 mOsm/l
- Plasma K+ concentration [1, 8]: 3.98 ± 0.13 mmol/L
- Plasma Na+ concentration [1, 8]: 126.0 ± 1.6 mmol/L
- Potassium excretion [1, 8]: 1.01 ± 0.60 µmol/min
- Sodium excretion [1, 8]: 0.93 ± 0.47 µmol/min
- Total solute excretion [1, 8]: 7.82±0.47 µOsm/min
- effect on systolic blood pressure (SBP) in adult SHR ([2]; adult SHR (16 weeks old), daily iv for 14 days, CH 2, RIY 7.5, VWIS 12.5 mg/kg/day): no sustained decrease in arterial blood pressure; also recorded: significant increase in SBP
- period of transient BP reduction post-infusion ([2]; adult SHR, chronic intravenous infusion of chymostatin 2 mg/kg/day): ≤ 7 h
- effect on blood pressure (SBP) in young animals ([2]; young SHR (6 weeks old), daily iv for 14 days, CH 2, RIY 7.5, VWIS 12.5 mg/kg/day): Neither of the inhibitors applied (chymostatin and the both rapeseed-derived peptides) affected blood pressure
